Experiments:
[1] = tested on: mice bearing TFK-1-RFP cells; conditions: mean ± SD
[2] = tested on: TFK-1 cells; experiment: Micro-PIXE analysis of intracellular Cu distribution; type: cell-based, human; conditions: compared among the three Cu2+ complexes and Cu2+ ions, no significant differences
Excerpt: A positive correlation was observed between in vitro whole-cell uptake and in vivo tumor uptake (R = 0.992, p = 0.00772) (Figure S2). Similarly, we observed a consistent correlation between in vitro nuclear uptake and in vivo tumor uptake (417.6 counts ± 150.02 for Cu^2+-Tren, 203.00 counts ± 25.13 for Cu^2+-Dien, 94.82 counts ± 48.07 for Cu^2+-TPMA, and 35.57 counts ± 25.02 for Cu^2+ ions) (p < 0.05).
The human extrahepatic bile duct carcinoma cell line TFK-1 was obtained from the RIKEN Bioresource Research Center (Ibaraki, Japan) and immediately expanded and frozen in our laboratory. […] Exponentially growing cells were detached from plates using trypsin (0.5 w/v% Trypsin-5.3 mmol/L EDTA·4Na Solution without Phenol Red (×10), Fujifilm Wako Pure Chemical Corporation, Osaka, Japan), and the number of viable cells was determined using the trypan blue dye (Bio-Rad, Hercules CA, USA) exclusion method.
A micro-PIXE analysis was carried out at the QST Electrostatic Accelerator Facility. […] Cells were subsequently stained with DAPI (4′,6-diamidino-2-phenylindole; Bio-Rad, Hercules, CA, USA) for nuclear localization and observed under a fluorescence microscope (BZ-X810, Keyence, Osaka, Japan). […] Distributions of Cu, P, K, Ca, Al, Fe, and S in each group were determined using Kα lines. […] Nuclei localization was determined via fluorescence microscope images of DAPI staining. […]

In the case of `NCCNCCN.[Cl-].[Cl-].[Cu+2]` [Cu^2+-Dien], the urinary excretion ([1]; urine collected during the 2.5 h post-administration, intravenous, TFK-1-RFP-xenografted mice) is reported as 1.68 ± 0.46 %ID.

`NCCN(CCN)CCN.[Cl-].[Cl-].[Cu+2]` [Cu^2+-Tren] was tested, and the “percentage counts of nuclear uptake/whole-cell uptake” value [2] was “highest average value”.

Work on `[Cl-].[Cl-].[Cu+2].c1ccc(CN(Cc2ccccn2)Cc2ccccn2)nc1` [Cu^2+-TPMA] yielded a tumor uptake ([1]; TFK-1-RFP-xenografted SCID beige mice, 2.5 h after intravenous injection of 1.85 MBq, n = 3–4/group) of 7.56 ± 0.41 %ID/g.

From PMC11280065, “^64Cu^2+ Complexes of Tripodal Amine Ligands’ In Vivo Tumor and Liver Uptakes and Intracellular Cu Distribution in the Extrahepatic Bile Duct Carcinoma Cell Line TFK-1: A Basic Comparative Study” (Pharmaceuticals, 2024)
